Here are results for one compound from paper PMC12276035, “Novel Para‐Phenylenediamine‐Based Derivatives as Receptor Tyrosine Kinase‐like Orphan Receptor 1 (ROR1) Inhibitors: An In Vitro Preliminary Characterization” (Chemmedchem, 2025).

One data set can be described thus: Plasma stability assay. In kind it is in vitro ADME. Conditions: mouse plasma, 120 min, 37 °C. On the procedure:
In addition to hepatic metabolism, drugs are also prone to degradation and modification by plasma enzymes, including hydrolases and esterases. Compounds with low plasma stability often show rapid clearance and a short half‐life. […] In this study, we assessed the metabolic stability of compound 17 by incubating it in mouse plasma for 120 min.
The plasma stability of compound 17 was evaluated. Briefly, mouse plasma is equilibrated to 37 °C and biotransformation is initiated by addition of compound solution and mixing. At each specified time point (0, 60, and 120 min), the test compound was extracted using ice‐cold methanol to halt degradation, with the IS added during the quenching phase. The concentration of the test compound was then quantified using LC‐MS. The percentage of the test compound remaining at each time point, relative to the 0 min reference, was recorded. Procaine (low stability) and procainamide (high stability) served as controls. All experiments were conducted in triplicate.

The nature of data set [1]: Plasma protein binding, rapid equilibrium dialysis. It counts as in vitro ADME. The note with it: 37 °C, read-out: drug bound to plasma proteins. The text has this:
Plasma protein binding plays a crucial role in drug distribution and biological activity. After absorption into systemic circulation, drug molecules may bind to plasma proteins, and the bound drug cannot cross biological membranes, rendering it unavailable to exert a pharmacological effect. Only the free drug, unbound to plasma proteins, is pharmacologically active.
A Rapid Equilibrium Dialysis Plate (Pierce™ RED, Thermo Scientific) was used to determine the percentage of compound binding to plasma proteins. Potassium phosphate buffer was added to each white well, and plasma/compound (1 μM) mixture was added to the red wells. The plate was sealed and incubated at 37 °C on an orbital shaker at 300 rpm for 4 h. Afterward, 50 μL of post‐dialysis samples from the buffer and plasma chambers were transferred into separate microcentrifuge tubes. An equal volume of plasma was added to the buffer sample, while the plasma sample received an equivalent volume of buffer. Precooled IS was added to the assay plate to quench the reaction. Compounds were quantified by LC‐MS/MS. The percentage of free and bound compound was calculated using the following equations: % free = (concentration in buffer chamber/concentration in plasma chamber) × 100, and % bound = 100 − % free.^[ [48] ^] All experiments were performed in duplicate. Propranolol was used as positive control.

The test system of another data set is SH‐SY5Y cells. The data set can be described thus: MTT cell viability assay, SH‐SY5Y. It counts as cell-based. Conditions: Homo sapiens, cytotoxicity, treated for 72 h, read-out: EC50 ± SD SH‐SY5Y. As to the method:
Cytotoxicity studies, assessing the activity of the synthetized compounds, were performed only on the molecules showing the best binding profile in the SPR assay. MTT test was performed on two cell lines known for overexpressing ROR1, particularly MTT assays were conducted on JeKo‐1 (human mantle cell lymphoma) and SH‐SY5Y (neuroblastoma), exposing them to different concentrations of compounds for 72 h (Table 2 ). […] This increased effectiveness is likely due to the high expression of the target protein in leukemia and other hematologic malignancies. […] A key structural difference in 18 and 19 compared to active compounds is the absence of the trifluoromethyl group on the aromatic ring. Indeed, the removal of the trifluoromethyl group (18) or the incorporation of an electron‐donating substituent (19) alters the interaction with the ATP‐binding pocket.
The neuroblastoma SH‐SY5Y cells, a human neuroblastoma cell line of neural crest origin, were obtained from ATCC and were grown in DMEM supplemented with 10% v/v fetal bovine serum, 2 mM L‐glutamine, 100 U mL^−1 penicillin, and 0.1 mg mL^−1 streptomycin.
Cell viability was established by measuring mitochondrial metabolic activity with MTT. In brief, SH‐SY5Y (20 × 10^3 cells/well) and JeKo‐1 (10 × 10^3 cells/well) were plated into 96‐well plates for 24 h, then the compounds (1.56–50 μM) were added. […], cells were replaced with a fresh medium containing 0.5 mg mL^−1 MTT.^[ [45] ^] Cells were incubated for 1–3 h at 37 °C, then the medium was discarded, and formazan blue crystals in the cells dissolved with 100 μL per well of a solution containing isopropanol/HCl 0.1 M. The absorbance was measured at 570 nm using a microplate reader (Multiskan Go, Thermo Scientific, Waltham, MA, USA). Cell viability was expressed as a percentage relative to the untreated cells cultured in medium with 0.1% DMSO and set to 100%, whereas 10% DMSO was used as positive control and set to 0% of viability. The EC50 values were calculated using GraphPad Prism 8.0 software by nonlinear regression of dose‐response inhibition.
(Tetrazolium assays rely on reduction of a dye to a coloured formazan, in cell work by metabolically active cells.)

Another data set deals with T1, ROR1 (Homo sapiens, UniProt Q01973).
T1 construct: endogenous in cells; host or cells: JeKo-1
The data set can be described thus: Cellular Thermal Shift Assay (CETSA). Conditions: JeKo‐1, 40 μM, 2 h, 45–58 °C. In kind it is cell-based. On the procedure: To further ascertain the binding between 17 and ROR1, we performed CETSA, a cell‐based test allowing us to carry out both qualitative and quantitative analyses of the direct interaction of a drug candidate to a target protein inside a cell.^[ [34] ^] CETSA assay was performed on JeKo‐1 cell line incubated with 17 for 2 h. After the treatment, ROR1 levels were evaluated by western blotting analysis. […] These findings provide strong evidence that the inhibitor effectively engages with ROR1 in cells, further supporting its mechanism of action (Figure 5 ). Ponatinib was used as a positive control (Figure S40, Supporting Information).
Figure 5 CETSA identifies ROR1 protein in the binding with 17 in JeKo‐1 cells. A) CETSA western blots and B) corresponding quantitative analysis of band intensity. […] Densitometry‐based quantification of western blotting signals was calculated by first normalizing to α‐tubulin levels in individual samples. […]
The CETSA is particularly suitable for identifying the interaction between ligands and their protein targets. […] The change in the thermal stability of the target protein is measured by the amount of residual soluble protein at different temperatures, comparing treated samples with control samples.^[ [32] ^] […] The amount of the soluble target protein was assessed by western blotting analysis.

The structures appear in SMILES notation.

T1 sequence (Q01973 30-937): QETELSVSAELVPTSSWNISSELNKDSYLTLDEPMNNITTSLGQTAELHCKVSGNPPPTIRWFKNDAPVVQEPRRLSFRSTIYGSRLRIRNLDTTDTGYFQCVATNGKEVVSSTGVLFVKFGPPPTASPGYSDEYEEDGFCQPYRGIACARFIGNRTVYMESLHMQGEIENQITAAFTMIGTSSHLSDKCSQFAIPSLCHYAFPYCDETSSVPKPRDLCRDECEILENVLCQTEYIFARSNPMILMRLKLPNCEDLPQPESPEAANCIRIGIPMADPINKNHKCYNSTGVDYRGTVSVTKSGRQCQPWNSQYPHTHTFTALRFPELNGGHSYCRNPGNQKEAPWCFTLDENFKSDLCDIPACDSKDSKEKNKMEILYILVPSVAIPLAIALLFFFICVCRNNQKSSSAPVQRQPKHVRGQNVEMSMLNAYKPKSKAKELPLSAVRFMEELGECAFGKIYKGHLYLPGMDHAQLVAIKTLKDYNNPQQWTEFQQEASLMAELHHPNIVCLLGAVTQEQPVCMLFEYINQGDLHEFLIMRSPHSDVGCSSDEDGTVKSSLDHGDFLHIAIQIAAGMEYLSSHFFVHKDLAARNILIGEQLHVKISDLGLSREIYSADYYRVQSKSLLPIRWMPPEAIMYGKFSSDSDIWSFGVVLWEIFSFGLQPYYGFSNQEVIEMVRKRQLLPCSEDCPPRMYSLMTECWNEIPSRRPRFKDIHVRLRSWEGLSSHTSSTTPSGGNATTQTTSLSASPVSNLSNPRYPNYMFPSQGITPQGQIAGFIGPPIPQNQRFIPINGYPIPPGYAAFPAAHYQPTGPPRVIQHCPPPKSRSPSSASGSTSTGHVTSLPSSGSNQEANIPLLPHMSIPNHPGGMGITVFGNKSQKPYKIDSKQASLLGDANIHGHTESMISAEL

As to `O=C(NCc1ccc(-c2ccccc2)cc1)Nc1ccc(NCC2CCNCC2)cc1C(F)(F)F` [Compound 17], the compound remaining intact entry in “Plasma stability assay” is “over 85%”. In data set [1], the fraction unbound at 4 h, 1 μM was determined as 0.01. Moreover, the concentration giving a half-maximal response (EC50) with SH‐SY5Y cells amounted to 17.7 ± 2.73 µM. Further, the ROR1 thermal stabilization result on ROR1 was “strong stabilization”.

The term EC50 denotes the concentration needed to bring the measured effect to its halfway point.
